What is called Emax is the size of the effect at its maximum, as opposed to the concentration needed.

What all share (type): biochemical
The target of assay [1] is T1, delta receptors, mouse brain (Mus musculus, UniProt P32300).
T1 construct: from tissue; host or cells: mouse brain homogenate
In words: GTP[γ]35S binding functional assay, homogenised mouse brain membranes. Here is the method: (§1) B. Mouse and rat brains were weighed and rinsed in ice-cold PBS (containing 2.5 mM EDTA, pH 7.4). The brains were homogenized with a polytron for 15 sec (mouse) or 30 sec (rat) in ice-cold lysis buffer (50mM Tris, pH 7.0, 2.5mM EDTA, with phenylmethylsulfonyl fluoride added just prior use to […] from a 0.5 M stock in DMSO:ethanol).
(§2) The agonist activity of the compounds is measured by determining the degree to which the compounds receptor complex activates the binding of GTP to G-proteins to which the receptors are coupled. In the GTP binding assay, GTP[γ]^35S is combined with test compounds and membranes from HEK-293S cells expressing the cloned human opioid receptors or from homogenised rat and mouse brain. Agonists stimulate GTP[γ]^35S binding in these membranes. The EC50 and Emax values of compounds are determined from dose-response curves. Right shifts of the dose response curve by the delta antagonist naltindole are performed to verify that agonist activity is mediated through delta receptors.
In general terms: Binding of GTPγS marks nucleotide exchange on a G protein.

In assay [2] the target is T2, cloned human δ receptor (Homo sapiens, UniProt P41143).
T2 construct: expressed in transfected cells; host or cells: human 293S (HEK-293S) cells, geneticin-selected
In words: GTP[γ]35S binding functional assay, membranes from HEK-293S cells expressing cloned human opioid receptors (HDELTA). On the procedure: A. Human 293S cells expressing cloned human μ, δ, and κ receptors and neomycin resistance were grown in suspension at 37° C. and 5% CO2 in shaker flasks containing calcium-free DMEM10% FBS, 5% BCS, 0.1% Pluronic F-68, and 600 μg/ml geneticin.
Cells were pelleted and resuspended in lysis buffer (50 mM Tris, pH 7.0, 2.5 mM EDTA, with PMSF added just prior to use to 0.1 mM from a 0.1 M stock in ethanol), incubated on ice for 15 min, then homogenized with a polytron for 30 sec. The suspension was spun at 1000 g (max) for 10 min at 4° C. The supernatant was saved on ice and the pellets resuspended and spun as before. The supernatants from both spins were combined and spun at 46,000 g (max) for 30 min. The pellets were resuspended in cold Tris buffer (50 mM Tris/Cl, pH 7.0) and spun again. The final pellets were resuspended in membrane buffer (50 mM Tris, […], pH 7.0). Aliquots (1 ml) in polypropylene tubes were frozen in dry ice/ethanol and stored at −70° C. until use. The protein concentrations were determined by a modified Lowry assay with sodium dodecyl sulfate.
as §2

Assay [3] deals with T3, delta receptors, rat brain (Rattus norvegicus, UniProt P33533).
T3 construct: from tissue; host or cells: rat brain homogenate
Kind of assay: GTP[γ]35S binding functional assay, homogenised rat brain membranes. On the procedure:
as §1, §2

T2 sequence (P41143 whole entry): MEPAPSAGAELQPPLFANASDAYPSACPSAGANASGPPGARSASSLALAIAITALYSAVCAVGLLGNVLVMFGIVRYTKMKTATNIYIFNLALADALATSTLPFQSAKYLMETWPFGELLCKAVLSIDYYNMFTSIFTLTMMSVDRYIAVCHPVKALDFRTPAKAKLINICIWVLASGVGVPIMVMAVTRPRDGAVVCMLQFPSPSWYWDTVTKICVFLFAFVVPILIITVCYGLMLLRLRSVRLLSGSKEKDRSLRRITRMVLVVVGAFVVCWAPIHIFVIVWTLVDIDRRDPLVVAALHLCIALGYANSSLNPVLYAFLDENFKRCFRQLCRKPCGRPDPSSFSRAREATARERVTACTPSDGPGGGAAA
T1 sequence (P32300 whole entry): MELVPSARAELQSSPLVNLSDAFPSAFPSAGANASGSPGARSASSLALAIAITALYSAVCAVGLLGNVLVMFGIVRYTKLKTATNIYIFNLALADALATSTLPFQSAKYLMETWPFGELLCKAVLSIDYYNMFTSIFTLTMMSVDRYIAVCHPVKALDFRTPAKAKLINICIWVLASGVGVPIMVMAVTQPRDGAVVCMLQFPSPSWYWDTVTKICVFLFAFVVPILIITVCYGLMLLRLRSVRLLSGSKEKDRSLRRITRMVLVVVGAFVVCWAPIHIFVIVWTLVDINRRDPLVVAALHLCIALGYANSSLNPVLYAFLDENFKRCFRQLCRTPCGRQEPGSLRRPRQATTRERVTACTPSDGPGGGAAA
T3 sequence (P33533 whole entry): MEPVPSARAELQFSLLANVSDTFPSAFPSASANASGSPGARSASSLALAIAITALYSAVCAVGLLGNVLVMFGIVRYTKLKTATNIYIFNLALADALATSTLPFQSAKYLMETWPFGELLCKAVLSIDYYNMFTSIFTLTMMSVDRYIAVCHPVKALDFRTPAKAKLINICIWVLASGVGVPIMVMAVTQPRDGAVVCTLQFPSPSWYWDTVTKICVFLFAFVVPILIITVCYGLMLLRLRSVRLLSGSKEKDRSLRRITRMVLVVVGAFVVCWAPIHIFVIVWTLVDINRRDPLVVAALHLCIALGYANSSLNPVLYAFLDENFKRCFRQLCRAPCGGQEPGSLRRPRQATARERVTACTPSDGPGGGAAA

As for `CCN(CC)C(=O)c1ccc(C(=C2CCN(Cc3ccccc3)CC2)c2cccc3cccnc23)cc1` [Example 2, N,N-diethyl-4-(8-quinolinyl-N-benzyl-piperidin-4-ylidene-methyl)-benzamide], the Emax in assay [1] turned out to be 112%; in assay [2] it was 90.5%; in assay [3], 104%.

Take `CCN(CC)C(=O)c1ccc(C(=C2CCN(Cc3ccco3)CC2)c2cccc3cccnc23)cc1` [Example 3, N,N-diethyl-4-[[1-(2-furylmethyl)-4-piperidinylidene](8-quinoline)methyl]benzamide]: the Emax in assay [1] worked out at 146%; in assay [2], 103%; in assay [3], 130%.

As for `CCN(CC)C(=O)c1ccc(C(=C2CCN(Cc3cccs3)CC2)c2cccc3cccnc23)cc1` [Example 4, N,N-diethyl-4-{8-quinolinyl[1-(2-thienylmethyl)-4-piperidinylidene]methyl}benzamide], the values for the Emax in assay [1], in assay [2] and in assay [3] were 140%, 98.5% and 120%, respectively.

For `CCN(CC)C(=O)c1ccc(C(=C2CCN(Cc3ccoc3)CC2)c2cccc3cccnc23)cc1` [Example 5, N,N-diethyl-4-[[1-(3-furylmethyl)-4-piperidinylidene](8-quinolinyl)methyl]benzamide], the Emax stood at 147% in assay [1], 99% in assay [2] and 135% in assay [3].

As for `CCN(CC)C(=O)c1ccc(C(=C2CCN(Cc3ccsc3)CC2)c2cccc3cccnc23)cc1` [Example 6, N,N-diethyl-4-{8-quinolinyl[1-(3-thienylmethyl)-4-piperidinylidene]methyl}benzamide], the Emax in assay [1] is 140%; in assay [2], 123%; in assay [3] it was 135%.

With `CCN(CC)C(=O)c1ccc(C(=C2CCN(Cc3ccccn3)CC2)c2cccc3cccnc23)cc1` [Example 7], the figures for the Emax in assay [1], in assay [2] and in assay [3] were 124%, 97.6% and 126%, respectively.

Regarding `CCN(CC)C(=O)c1ccc(C(=C2CCN(Cc3ncc[nH]3)CC2)c2cccc3cccnc23)cc1` [Example 8], the Emax in assay [1] was 138%; in assay [2], 111%; in assay [3], 148%.

For `CCN(CC)C(=O)c1ccc(C(=C2CCN(Cc3c[nH]cn3)CC2)c2cccc3cccnc23)cc1` [Example 9], the Emax in assay [1] was found to be 123%; in assay [2], 100%; in assay [3] it was 112%.

For the molecule `CCN(CC)C(=O)c1ccc(C(=C2CCN(Cc3ccncc3)CC2)c2cccc3cccnc23)cc1` [Example 10], the Emax in assay [1] was 110%; in assay [2], 118%; in assay [3] it was 109%.

The values are drawn from patent US6753335B2, “Quinolinyl-piperidin-4-ylidene-methyl-benzamide derivatives for the treatment of pain” (AstraZeneca AB, priority 2000, dated 2004).
